Reference: patent US5500430A, “Amidic derivatives of glutamic, aspartic and 2-amino adipic acids, a process for preparing same, and anti-gastrin composition containing the derivatives” (Rotta Research Laboratorium S.p.A., priority 1990, dated 1996)

What was measured:
[1] = test system: guinea-pig gall bladder contracted with CCK-8; experiment: Anticholecystokinin (anti-CCK) activity on guinea-pig gall bladders stimulated by CCK-8 in vitro; details: CCK-8 concentration 10 ng/ml, Krebs, 32° C.
Experimental: Anticholecystokinin (anti-cc, K) activity
In order to confirm the hypothesis that the molecular conformations of the compounds of the invention are suitable to provide them with antagonistic activity towards CCK as well as towards gastrin, the anticontracturant activities of some of the compounds of the invention were tested on guinea-pig gall bladders stimulated by CCK-8 in vitro.
A longitudinal strip of guinea-pig gall bladder was placed in a bath for isolated organs in the presence of Krebs at a temperature of 32° C. and oxygenated continuously with an oxygen-CO2 mixture (95-5 V/V).
The isometric contractions were detected by means of a force transducer and recorded.
The gall bladder was contracted with the use of a concentration of 10 ng/ml of CCK-8; the antagonistic activities of the compounds towards the contracturant effect of the CCK was determined with the use of different concentrations, thus determining the IC50 values, that is, the concentration of the compound in mcg/ml which can antagonise the contracturant effect of CCK by 50%.

[2] = target: T1, gastrin receptor sites on the cerebral cortex membranes of mice (Mus musculus, UniProt P56481); experiment: Inhibition of the binding of pentagastrin to mouse cortical membranes
T1 construct: Mouse cortical tissue; from tissue; host or cells: mouse cerebral cortex membranes
T1 sequence (P56481 1-453): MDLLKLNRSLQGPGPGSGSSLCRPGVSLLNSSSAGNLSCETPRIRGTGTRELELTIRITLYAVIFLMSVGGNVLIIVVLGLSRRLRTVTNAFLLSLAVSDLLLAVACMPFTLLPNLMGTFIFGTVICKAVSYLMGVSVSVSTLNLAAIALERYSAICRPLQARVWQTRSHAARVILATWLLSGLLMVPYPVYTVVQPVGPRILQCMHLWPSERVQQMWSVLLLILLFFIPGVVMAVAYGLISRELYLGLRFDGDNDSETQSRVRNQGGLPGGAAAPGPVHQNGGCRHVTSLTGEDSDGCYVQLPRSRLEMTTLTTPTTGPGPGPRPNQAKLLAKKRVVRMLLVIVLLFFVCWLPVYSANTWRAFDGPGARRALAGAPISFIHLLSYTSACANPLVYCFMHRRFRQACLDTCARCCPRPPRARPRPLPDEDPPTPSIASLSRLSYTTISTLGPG
From the text: Tests on binding to cerebral cortex membranes of mice
The capacities of some of the compounds of the invention to inhibit the binding of pentagastrin to the gastrin receptor sites on the cerebral cortex membranes of mice was to be evaluated. Pentagastrin tritiate[beta-alanyl-3-3H(N)] was used as the ligand.
Mouse cortical tissue Was homogenised cold in 20 volumes of tris buffer (pH 7.7). After washing and centrifuging, the final pellet was resuspended in 20 volumes of binding buffer containing, inter alia, TRIS, BSA and Bacitracin. 0.4 ml of the membrane thus obtained were then incubated with a radioactive tracer and the compounds under test for 40 minutes at 37° C.
After the supernatant liquid had been removed by centrifuging, the radioactivity associated with the pellet was determined with a liquid scintillator (a beta-counter). The specific binding was the difference between the binding in the absence and in the presence of 10^-5M pentagastrin.

O=C(O)CC[C@@H](NC(=O)c1cc(Cl)cc(Cl)c1)C(=O)N1CCC2(CCCC2)CC1 [Compound C5]
Anti-CCK activity IC50 [1]: 34.8 µg/mL
IC50 ([2]; pentagastrin tritiate ligand, 40 minutes at 37° C., read-out: IC50, inhibition of the binding of pentagastrin): 110 nM
Activity on the central receptor relative to C-30 ([2]; vs C-30): three times less active
